Experimental findings from ChEMBL document CHEMBL1130004, “Bioactivities and secondary structures of constrained analogues of human parathyroid hormone: cyclic lactams of the receptor binding region” (J Med Chem, 1997) are described below.

Positions of bridges follow the written chain, without caps; N, C: chain ends. Residues, ends and D or L forms follow the SMILES beside them.

For this test, the species on record is Rattus norvegicus. Nature of the test: Adenylyl cyclase stimulating activity expressed as effective dose was measured in rat osteosarcoma 17/2 cells. The test is classed as functional, cell-based.

A word on the EC50: it is the concentration that produces a half-maximal response. Low values mean an effect from little substance, high ones a need for much substance. For `CC[C@H](C)[C@H](NC(=O)[C@H](CCC(=O)O)NC(=O)[C@H](CO)NC(=O)[C@@H](NC(=O)[C@@H](N)CO)C(C)C)C(=O)N[C@@H](CCC(N)=O)C(=O)N[C@@H](CC(C)C)C(=O)N[C@@H](CCSC)C(=O)N[C@@H](Cc1c[nH]cn1)C(=O)N[C@@H](CC(N)=O)C(=O)N[C@@H](CC(C)C)C(=O)NCC(=O)N[C@@H](CCCCN)C(=O)N[C@@H](Cc1c[nH]cn1)C(=O)N[C@@H](CC(C)C)C(=O)N[C@@H](CC(N)=O)C(=O)N[C@@H](CO)C(=O)N[C@@H](CCSC)C(=O)N[C@@H](CCC(=O)O)C(=O)N[C@@H](CCCN=C(N)N)C(=O)N[C@H](C(=O)N[C@@H](CCC(=O)O)C(=O)N[C@@H](Cc1c[nH]c2ccccc12)C(=O)N[C@@H](CC(C)C)C(=O)N[C@@H](CCCN=C(N)N)C(=O)N[C@@H](CCCCN)C(=O)N[C@@H](CC(C)C)C(=O)N[C@@H](CC(C)C)C(=O)N[C@@H](CCC(N)=O)C(=O)N[C@@H](CC(=O)O)C(=O)N[C@H](C(N)=O)C(C)C)C(C)C`, the midpoint of the response, the EC50, lay at 11.5 nM.
To `CC[C@H](C)[C@H](NC(=O)[C@H](CCC(=O)O)NC(=O)[C@H](CO)NC(=O)[C@@H](NC(=O)[C@@H](N)CO)C(C)C)C(=O)N[C@@H](CCC(N)=O)C(=O)N[C@@H](CC(C)C)C(=O)N[C@@H](CCSC)C(=O)N[C@@H](Cc1c[nH]cn1)C(=O)N[C@@H](CC(N)=O)C(=O)N[C@@H](CC(C)C)C(=O)NCC(=O)N[C@@H](CCCCN)C(=O)N[C@@H](Cc1c[nH]cn1)C(=O)N[C@@H](CC(C)C)C(=O)N[C@@H](CC(N)=O)C(=O)N[C@@H](CO)C(=O)N[C@@H](CCSC)C(=O)N[C@@H](CCC(=O)O)C(=O)N[C@@H](CCCN=C(N)N)C(=O)N[C@H](C(=O)N[C@@H](CCC(=O)O)C(=O)N[C@@H](Cc1c[nH]c2ccccc12)C(=O)N[C@@H](CC(C)C)C(=O)N[C@@H](CCCN=C(N)N)C(=O)N[C@@H](CCCCN)C(=O)N[C@H]1CCCCNC(=O)C[C@@H](C(=O)N[C@H](C(N)=O)C(C)C)NC(=O)[C@H](CCC(N)=O)NC(=O)[C@H](CC(C)C)NC1=O)C(C)C` belongs 40.3 nM; to `CC[C@H](C)[C@H](NC(=O)[C@H](CCC(=O)O)NC(=O)[C@H](CO)NC(=O)[C@@H](NC(=O)[C@@H](N)CO)C(C)C)C(=O)N[C@@H](CCC(N)=O)C(=O)N[C@@H](CC(C)C)C(=O)N[C@@H](CCSC)C(=O)N[C@@H](Cc1c[nH]cn1)C(=O)N[C@@H](CC(N)=O)C(=O)N[C@@H](CC(C)C)C(=O)NCC(=O)N[C@@H](CCCCN)C(=O)N[C@@H](Cc1c[nH]cn1)C(=O)N[C@@H](CC(C)C)C(=O)N[C@@H](CC(N)=O)C(=O)N[C@@H](CO)C(=O)N[C@@H](CCSC)C(=O)N[C@@H](CCC(=O)O)C(=O)N[C@@H](CCCN=C(N)N)C(=O)N[C@H](C(=O)N[C@H]1CCC(=O)NCCCC[C@@H](C(=O)N[C@@H](CC(C)C)C(=O)N[C@@H](CC(C)C)C(=O)N[C@@H](CCC(N)=O)C(=O)N[C@@H](CC(=O)O)C(N)=O)NC(=O)[C@H](CCCN=C(N)N)NC(=O)[C@H](CC(C)C)NC(=O)[C@H](Cc2c[nH]c3ccccc23)NC1=O)C(C)C` (H-SVSEIQLMHNLGKHLNSMERVEWLRKLLQD-NH2; lactam 22-26), 20 nM; to `CC[C@H](C)[C@H](NC(=O)[C@H](CCC(=O)O)NC(=O)[C@H](CO)NC(=O)[C@@H](NC(=O)[C@@H](N)CO)C(C)C)C(=O)N[C@@H](CCC(N)=O)C(=O)N[C@@H](CC(C)C)C(=O)N[C@@H](CCSC)C(=O)N[C@@H](Cc1c[nH]cn1)C(=O)N[C@@H](CC(N)=O)C(=O)N[C@@H](CC(C)C)C(=O)NCC(=O)N[C@@H](CCCCN)C(=O)N[C@@H](Cc1c[nH]cn1)C(=O)N[C@@H](CC(C)C)C(=O)N[C@@H](CC(N)=O)C(=O)N[C@@H](CO)C(=O)N[C@@H](CCSC)C(=O)N[C@@H](CCC(=O)O)C(=O)N[C@@H](CCCN=C(N)N)C(=O)N[C@H](C(=O)N[C@H]1CCC(=O)NCCCC[C@@H](C(=O)N[C@@H](CC(C)C)C(=O)N[C@@H](CC(C)C)C(=O)N[C@@H](CCC(N)=O)C(=O)N[C@@H](CC(=O)O)C(=O)N[C@H](C(N)=O)C(C)C)NC(=O)[C@H](CCCN=C(N)N)NC(=O)[C@H](CC(C)C)NC(=O)[C@H](Cc2c[nH]c3ccccc23)NC1=O)C(C)C` (H-SVSEIQLMHNLGKHLNSMERVEWLRKLLQDV-NH2; lactam 22-26), 3.3 nM.
Next, H-SVSEIQLMHNLGKHLNSMERVEWLRKKLQD-NH2: 20 nM.
In turn, H-SVSEIQLMHNLGKHLNSMERVEWLRKLLQD-NH2 came in with an EC50 of 20 nM.
